According to patent US5149707A, “1-((2-fluorophenyl)(4-fluorophenyl)phenylmethyl)-1H-imidazole useful as antifungal agent” (J. Uriach & Cia, S.A., priority 1988, dated 1992):
Values after ≈ are worked out from the molar mass of the structure shown.

Columns and labels:
Assay type in all cases: cell-based
M. canis = experiment: MIC distribution, serial dilutions in Sabouraud gentamycin broth, microplates; details: # of strains = 13
Experimental: (§1) The antifungal activity of 1-[(2-fluorophenyl)(4-fluorophenyl)phenylmethyl]-1H-imidazole and bifonazole was determined by serial dilutions in Sabouraud gentamycin broth using microplates. The antifungal agent was diluted in 50% ethanol to obtain concentrations between 40 and 0.015 mcg/ml. Inoculum was 10^7 cfu/ml for yeast and 10^6 cfu/ml for dermatophytes. Incubation was allowed at 37° C. during 2 days for yeasts, and at 29° C. during 7 days for dermatophytes. MIC's were determined as in example 18. The MIC distributions obtained in 9 organisms are shown in the next tables.

T. mentagrohytes = experiment: as above; details: # of strains = 17
Experimental: as §1

T. rubrum = experiment: as above; details: # of strains = 6
Experimental: as §1

C. krusei = experiment: as above; details: # of strains = 5
Experimental: as §1

C. tropicalis = experiment: as above; details: # of strains = 30
Experimental: as §1

C. parapsilosis = experiment: as above; details: # of strains 10 = UR-4056/14 = Bifonazole
Experimental: as §1

C. guilliermondii = experiment: as above; details: MIC column 40 (first); # of strains = 5
Experimental: as §1

T. glabrata = experiment: as above; details: # of strains = 10 = UR-4056/15 Bifonzaole
Experimental: as §1

C. albicans = experiment: as above; details: # of strains = 50
Experimental: as §1

[1] = test system: C. guilliermondii (clinica); experiment: In vitro antifungal activity (MIC), agar dilution; details: Meyerozyma guilliermondii
Experimental: (§2) The antifungal activity of 1-[(2-fluorophenyl)(4-fluorophenyl)phenylmethyl]-1H-imidazole was shown by its ability to inhibit the growth of different species of yeast and filamentous fungi in vitro. The activity was recorded as the MIC value, that is, the minimum amount of product needed to achieve the complete inhibition of the in vitro growth of the test organism. Testing was performed as follows: a solution of the antifungal agent in ethanol was diluted with DST agar (pH 6.5) or Emmon's Sabouraud dextrose agar to obtain concentrations between 10 and 0.01 mcg/ml, or 80 and 0.16 mcg/m, respectively. The inoculum was standarized in order 1×10^5 cfu/ml, and 10 mcl of each organism was seeded into the agar surface. Incubation was then allowed at 30° C. during 3 days (DST) or 2 days (Emmon's) for yeasts and 10 days for filamentous fungi. Following incubation, the zones of inhibition were measured and compared to an inoculated, drug-free control to yield the MIC value.

[2] = test system: C. guilliermondii SQ 2210; experiment: In vitro antifungal activity (MIC), agar dilution; details: Meyerozyma guilliermondii
Experimental: as §2

[3] = test system: T. mentagrophytes (clinica) (1); experiment: In vitro antifungal activity (MIC), agar dilution; details: Trichophyton mentagrophytes
Experimental: as §2

[4] = test system: C. pseudotropicalis ATCC 28838; experiment: In vitro antifungal activity (MIC), agar dilution; details: Kluyveromyces marxianus
Experimental: as §2

Aspergillus flavus = experiment: In vitro antifungal activity (MIC), agar dilution
Experimental: as §2

C. tropicalis SQ 1647 = experiment: In vitro antifungal activity (MIC), agar dilution
Experimental: as §2

[5] = test system: T. mentagrophytes (clinica) (5); experiment: In vitro antifungal activity (MIC), agar dilution; details: Trichophyton mentagrophytes
Experimental: as §2

[6] = test system: C. parapsilosis (clinica); experiment: In vitro antifungal activity (MIC), agar dilution; details: Lodderomyces parapsilosis
Experimental: as §2

T. glabrata (clinica) = experiment: In vitro antifungal activity (MIC), agar dilution; details: Nakaseomyces glabratus
Experimental: as §2

[7] = test system: Aspergillus fumigatus (2); experiment: In vitro antifungal activity (MIC), agar dilution
Experimental: as §2

Microsporum gypseum (-) = experiment: In vitro antifungal activity (MIC), agar dilution; details: Nannizzia gypsea
Experimental: as §2

S. cerevisiae ATCC 9763 = experiment: In vitro antifungal activity (MIC), agar dilution; details: Saccharomyces cerevisiae
Experimental: as §2

Rhodotorula rubra = experiment: In vitro antifungal activity (MIC), agar dilution
Experimental: as §2

C. albicans ATCC 28516 = experiment: In vitro antifungal activity (MIC), agar dilution; details: Candida albicans
Experimental: as §2

Microsporum gypseum = experiment: In vitro antifungal activity (MIC), agar dilution; details: Nannizzia gypsea
Experimental: as §2

[8] = Emmon's Sabouraud dextrose agar

c1ccc(-c2ccc(C(c3ccccc3)n3ccnc3)cc2)cc1 (stereo not drawn) [Bifonazole, 1-[(4-biphenyl)-phenylmethyl]-1H-imidazole, reference compound]
MIC Distribution (number of strains) (M. canis; MIC 0.038): 1 # of strains
MIC Distribution (number of strains) (M. canis; MIC 2.5): 4 # of strains
MIC Distribution (number of strains) (M. canis; MIC 5.0): 5 # of strains
MIC Distribution (number of strains) (M. canis; MIC column 0.078): 1 # of strains
MIC Distribution (number of strains) (M. canis; MIC column 1.2): 2 # of strains
MIC Distribution (number of strains) (T. mentagrohytes; MIC 0.038): 1 # of strains
MIC Distribution (number of strains) (T. mentagrohytes; MIC 0.6): 1 # of strains
MIC Distribution (number of strains) (T. mentagrohytes; MIC 2.5): 5 # of strains
MIC Distribution (number of strains) (T. mentagrohytes; MIC column 1.2): 10 # of strains
MIC Distribution (number of strains) (T. rubrum; MIC 0.038): 2 # of strains
MIC Distribution (number of strains) (T. rubrum; MIC 0.3): 1 # of strains
MIC Distribution (number of strains) (T. rubrum; MIC 0.6): 1 # of strains
MIC Distribution (number of strains) (T. rubrum; MIC 5.0): 1 # of strains
MIC Distribution (number of strains) (T. rubrum; MIC column 1.2): 1 # of strains
MIC Distribution (number of strains) (C. krusei; MIC 2.5): 1 # of strains
MIC Distribution (number of strains) (C. krusei; MIC column 10): 1 # of strains
MIC Distribution (number of strains) (C. krusei; MIC column 40 (first)): 3 # of strains
MIC Distribution (number of strains) (C. tropicalis; MIC 5.0): 2 # of strains
MIC Distribution (number of strains) (C. tropicalis; MIC column 10): 1 # of strains
MIC Distribution (number of strains) (C. tropicalis; MIC column 40 (first)): 27 # of strains
MIC Distribution (number of strains) (C. parapsilosis; MIC 0.6): 1 # of strains
MIC Distribution (number of strains) (C. parapsilosis; MIC 5.0): 1 # of strains
MIC Distribution (number of strains) (C. parapsilosis; MIC column 10): 2 # of strains
MIC Distribution (number of strains) (C. parapsilosis; MIC column 40 (first)): 10 # of strains
MIC Distribution (number of strains) (C. guilliermondii): 5 # of strains
MIC Distribution (number of strains) (T. glabrata; MIC 0.15): 1 # of strains
MIC Distribution (number of strains) (T. glabrata; MIC 0.6): 1 # of strains
MIC Distribution (number of strains) (T. glabrata; MIC 2.5): 3 # of strains
MIC Distribution (number of strains) (T. glabrata; MIC 5.0): 5 # of strains
MIC Distribution (number of strains) (T. glabrata; MIC column 10): 3 # of strains
MIC Distribution (number of strains) (T. glabrata; MIC column 40 (first)): 2 # of strains
MIC Distribution (number of strains) (C. albicans; MIC 2.5): 6 # of strains
MIC Distribution (number of strains) (C. albicans; MIC 5.0): 28 # of strains
MIC Distribution (number of strains) (C. albicans; MIC column 10): 11 # of strains
MIC Distribution (number of strains) (C. albicans; MIC column 20): 1 # of strains
MIC Distribution (number of strains) (C. albicans; MIC column 40 (first)): 4 # of strains
MIC [1, 8]: 40 µg/mL (≈ 129 µM)
MIC ([1]; DST agar): 10 µg/mL (≈ 32.2 µM)
MIC ([2]; SQ2210, DST agar): 10 µg/mL (≈ 32.2 µM)
MIC ([2]; SQ2210, Emmon's Sabouraud dextrose agar): 5 µg/mL (≈ 16.1 µM)
MIC ([3]; DST agar): 0.5 µg/mL (≈ 1.61 µM)
MIC [3, 8]: 5 µg/mL (≈ 16.1 µM)
MIC ([4]; ATCC28838, DST agar): 0.05 µg/mL (≈ 0.161 µM)
MIC ([4]; ATCC28838, Emmon's Sabouraud dextrose agar): 1.25 µg/mL (≈ 4.03 µM)
MIC (Aspergillus flavus; DST agar): 10 µg/mL (≈ 32.2 µM)
MIC (Aspergillus flavus; [8]): 80 µg/mL (≈ 258 µM)
MIC (C. tropicalis SQ 1647; Candida tropicalis, SQ1647): 10 µg/mL (≈ 32.2 µM)
MIC (C. tropicalis SQ 1647; [8]): 10.00 µg/mL (≈ 32.2 µM)
MIC ([5]; DST agar): 1 µg/mL (≈ 3.22 µM)
MIC [5, 8]: 5 µg/mL (≈ 16.1 µM)
MIC ([6]; DST agar): 10 µg/mL (≈ 32.2 µM)
MIC [6, 8]: 20 µg/mL (≈ 64.4 µM)
MIC (T. glabrata (clinica); DST agar): 0.05 µg/mL (≈ 0.161 µM)
MIC (T. glabrata (clinica); [8]): 0.16 µg/mL (≈ 0.515 µM)
MIC ([7]; DST agar): 1 µg/mL (≈ 3.22 µM)
MIC [7, 8]: 1.25 µg/mL (≈ 4.03 µM)
MIC (Microsporum gypseum (-); DST agar): 2.5 µg/mL (≈ 8.05 µM)
MIC (Microsporum gypseum (-); [8]): 5 µg/mL (≈ 16.1 µM)
MIC (S. cerevisiae ATCC 9763; ATCC9763, DST agar): 0.25 µg/mL (≈ 0.805 µM)
MIC (S. cerevisiae ATCC 9763; ATCC9763, Emmon's Sabouraud dextrose agar): 0.63 µg/mL (≈ 2.03 µM)
MIC (Rhodotorula rubra; DST agar): 0.05 µg/mL (≈ 0.161 µM)
MIC (Rhodotorula rubra; [8]): 0.04 µg/mL (≈ 0.129 µM)
MIC (C. albicans ATCC 28516; ATCC28516, DST agar): 2.5 µg/mL (≈ 8.05 µM)
MIC (C. albicans ATCC 28516; ATCC28516, Emmon's Sabouraud dextrose agar): 0.63 µg/mL (≈ 2.03 µM)
MIC (Microsporum gypseum; DST agar): 0.1 µg/mL (≈ 0.322 µM)
MIC (Microsporum gypseum; [8]): 0.63 µg/mL (≈ 2.03 µM)
